These results are taken from patent publication EP0128338A1, “Silver pseudomonate, compositions containing it and its use in treating pseudomonal infections” (BEECHAM GROUP PLC, priority 1983, dated 1984).

In the assay the test system is Pseudomonas aeruginosa. The assay is described as follows: Minimum inhibitory concentrations (MICs) against 20 strains of Pseudomonas aeruginosa in Blood Agar Base. In kind it is cell-based. Here is the method: • a) The minimum inhibitory concentrations (MICs) of silver pseudomonate and sodium pseudomonate were determined against 20 strains of Pseudomonas aeruginosa in Blood Agar Base. […] Typical results are presented in Table 2. [formula] [formula]

For Silver Pseudomonate A, the “minimum inhibitory concentrations (MICs)” value (20 strains of Pseudomonas aeruginosa, Blood Agar Base, comparison in words) is given as “more active than sodium pseudomonate against all strains tested”. In addition, the “activity against Pseudomonas organisms” value (general statement in words) is “active”.
